According to patent publication US20240336972A1, “METHODS FOR SELECTING MELANOMA PATIENTS FOR THERAPY AND METHODS OF REDUCING OR PREVENTING MELANOMA METASTASIS” (Oregon Health & Science University, priority 2021, published 2024):
Entries after “also recorded” stand apart in the source; their conditions may differ.

Key:
A375 melanoma cells = assay: RNA-seq of A375 melanoma cells before and after treatment with fluvastatin; format: cell-based, human
Protocol: Characterization of the transcriptome in human melanoma cells exposed to fluvastatin The effect of statins on the melanoma transcriptome was characterized using a well-established melanoma cell line. Human melanoma cell line A375 (a generous gift of Dr John Letterio, Case Western Reserve University, Cleveland, OH) were maintained in standard growth media consisting of RPMI 1640 (Thermo Fisher Scientific, Waltham, MA) b 10% fetal bovine serum p 2 mM glutamine and grown in a 5% carbon dioxide-humidified atmosphere at 37° C. Cells were tested biannually and shown to be negative for mycoplasma contamination using the Mycoplasma Detection kit (MycoAlert, Lonza, Basel, Switzerland). For gene expression studies, A375 cells were seeded at 2.5E6 per […] and allowed to adhere overnight. Test samples (in triplicate) were treated with fluvastatin (purchased from Millipore Sigma, St. […] Untreated control cells grown side by side were used as the reference control for differential expression analysis. RNA was quantified using the Qubit Broad Range RNA kit (catalog #Q10210; Thermo Fisher Scientific) and diluted to 50 ng/ml for RNA-seq.
Sequencing reads generated from the Illumina HiSeq platform (Illumina, San Diego, CA) were assessed for quality and trimmed for adapter sequences using TrimGalore!, version 0.4.2 (Babraham Bioinformatics, Cambridge, United Kingdom), a wrapper script for FastQC and cutadapt. Reads that passed quality control were subsequently aligned to the human reference genome (GRCh38) using STAR aligner, version 2.5.1. Sequence alignment was guided using the GENCODE annotation for hg38. The aligned reads were analyzed for differential expression using Cufflinks, version 2.2.1, an RNA-seq analysis package that reports the fragments per kilobase of exon per million mapped for each gene. A differential analysis report was generated using the cuffdiff command performed in a pairwise manner for each group. Differential genes were identified using a significance cutoff of q<0.05. The differential expression profiles were then used as input in iPathwayGuide (Advaita Bioinformatics, Ann Arbor, MI) for pathway analysis.

A375 cells = conditions: cited from earlier work
melanoma metastasis = conditions: mouse, in vivo; cited from earlier work
[1] = system: melanocytic atypia and melanoma initiation markers; conditions: in vivo; cited from earlier work
[2] = fluvastatin 3 µM, 24 hours, vs untreated control
[3] = fluvastatin 3 µM, 24 hours, vs untreated control, SkylineDx profile gene

CC(C)n1c(/C=C/C(O)CC(O)CC(=O)O)c(-c2ccc(F)cc2)c2ccccc21 (centres unmarked) [Fluvastatin]
expression of genes included in melanoma prognostic tests (DecisionDx-Melanoma, Merlin Assay) (A375 melanoma cells): significantly altered
expression of genes used in a diagnostic test that distinguishes melanoma from nevi (myPath Melanoma) (A375 melanoma cells): did not alter; also recorded: did not affect
effect on the metastatic gene expression profile of melanoma (A375 melanoma cells; 3 μM concentration for 24 hours): effectively reverses
SLC16A1 fold change (A375 melanoma cells; after fluvastatin exposure, q=0.062, not statistically significant): 0.797
BUB1 Log2 Fold Change (A375 melanoma cells; [2]): −0.7319
CCND3 Log2 Fold Change (A375 melanoma cells; [2]): −0.7194
CDKN1A Log2 Fold Change (A375 melanoma cells; [2]): 1.3053
CDKN1C Log2 Fold Change (A375 melanoma cells; [2]): 3.2643
CUL1 Log2 Fold Change (A375 melanoma cells; [2]): −0.3847
FGF2 Log2 Fold Change (A375 melanoma cells; [2]): −0.5791
KIFC1 Log2 Fold Change (A375 melanoma cells; [2]): −0.4213
MAGEA1 Log2 Fold Change (A375 melanoma cells; [2]): −0.4357
MAGEA3 Log2 Fold Change (A375 melanoma cells; [2]): −0.4574
MAGEA4 Log2 Fold Change (A375 melanoma cells; [2]): −0.2919
MAGEA6 Log2 Fold Change (A375 melanoma cells; [2]): −0.4529
MAGED1 Log2 Fold Change (A375 melanoma cells; [2]): 0.7222
S1PR5 Log2 Fold Change (A375 melanoma cells; [2]): −1.3212
SOX4 Log2 Fold Change (A375 melanoma cells; [2]): −0.4139
TGFBRAP1 Log2 Fold Change (A375 melanoma cells; [2]): −0.3389
AQP3 Log2 Fold Change (A375 melanoma cells; fluvastatin 3 µM, 24 hours, vs untreated control, Castle Biosciences profile gene): 3.2162
K14 Log2 Fold Change (A375 melanoma cells; fluvastatin 3 µM, 24 hours, vs untreated control, Castle Biosciences profile gene (keratin 14)): 2.8530
CXCL8 Log2 Fold Change (A375 melanoma cells; [3]): 0.8218
ITGB3 Log2 Fold Change (A375 melanoma cells; [3]): 0.5304
PLAT Log2 Fold Change (A375 melanoma cells; [3]): 1.7389
differentially expressed genes identified (A375 melanoma cells; significance cutoff q<0.05): 2,615

CC(C)c1c(C(=O)Nc2ccccc2)c(-c2ccccc2)c(-c2ccc(F)cc2)n1CC[C@@H](O)C[C@@H](O)CC(=O)O [atorvastatin, Atorvastatin]
migration and invasion (A375 cells; Matrigel transwell assay): decreasing
isoprenylation of RhoC (A375 cells): decreases
metastasis (melanoma metastasis): decreasing

CC[C@H](C)C(=O)O[C@H]1C[C@@H](C)C=C2C=C[C@H](C)[C@H](CC[C@@H]3C[C@@H](O)CC(=O)O3)[C@H]21 [lovastatin, Lovastatin]
melanocytic atypia or other melanoma initiation markers [1]: did not identify any significant decreases
